US5608084A, “Lactones with antioxidising and hypolipidaemic activity useful in the therapy of the atherosclerosis” (priority 1994, dated 1997)
Like-named read-outs stand apart in the source and are kept apart here.

How the values were obtained:
[1] = test system: men and women; details: considerable amounts of Vitamin E; cited from earlier work
[2] = test system: LDL; details: in vitro, LDL incubated with antioxidizer; cited from earlier work
[3] = test system: HepG2; assay: Incorporation of 14C-acetate in the lipidic classes in HepG2 cells (hypolipidaemic activity); type: cell-based, human; details: for Incorporation of 14C-acetate: Cholesterol / Incorporation of 14C-acetate: Esters of Cholesterol / Incorporation of 14C-acetate: Fatty acids / Incorporation of 14C-acetate: Phospholipids / Incorporation of 14C-acetate: Triglycerides: per culture plate; for inhibition at 1 µM / inhibition at 10 µM: Homo sapiens, HepG2
Method: The hypolipidaemic activity of some lactones of general formula I has been evaluated in vitro by testing their influence on the synthesis of the cell lipids like cholesterol, fatty acids, triglycerides, phospholipids and esters of the cholesterol, described by Barnhard J. W. in Amer. J. Cardiol., 62, 52B-56B, (1988).
The synthesis of the lipids has been studied by incubating cells coming from a human hepatocarcinoma (HepG2-American Type Culture Collection) in presence of ^14 C-acetate (Amersham) and by measuring the incorporation of the radioactive precursor in the main lipidic classes by means of chromatographic separation on silica gel (Merck F254), according to the method described by Skipski V. P. et al. in Biochem. Biophys. Acta, 106, 386-396, (1965) and by means of scintillographic dosage with β-counter Beckman scintillator, according to the method reported by Gherardi E. and Calandra S. in Lipids, 15, 108-112, (1980).
The data reported in tables 4 and 5 refer to the incorporation of ^14 C-acetate in the various lipidic classes, expressed as radioactivity in count per minute (cpm) for culture plate, for some lactones, in comparison with the probucol and the gemfibrozil, used as positive controls and with the solvent ethanol, used as negative control.
The percents in brackets express the lowering of the ^14 C-acetate in the various lipidic classes referred to the control, i.e. to the physiological solution. […] The confluence cells have been exposed to the products tested for 24 hours; at the end of the incubation the monolayer has been solubilized and the optical density of the lysate at λ260 nm has been measured. The value of the absorbance is direct function of the amount of the macromolecules present and therefore indirectly of the number of the cells.

For Vitamin E, the “risk of vascular pathologies” value [1] is given as “lowering of the risk of vascular pathologies” and the “atherogenic potentialities of the LDL” value [2] is given as “remarkably lowered”.
With Cc1ccc(C)c(OCCCC(C)(C)C(=O)O)c1 [Gemfibrozil, reference compound] the “influence on the synthesis of the triglycerides” value [3] was “remarkable activity”, the “Incorporation of 14C-acetate: Cholesterol” value ([3]; 1 μM) was 20820 cpm and the “Incorporation of 14C-acetate: Esters of Cholesterol” value ([3]; 1 μM) was 968 cpm. The “Incorporation of 14C-acetate: Fatty acids” value ([3]; 1 μM) was 299 cpm, the “Incorporation of 14C-acetate: Phospholipids” value ([3]; 1 μM) was 132598 cpm and the “Incorporation of 14C-acetate: Triglycerides” value ([3]; 1 μM) was 84593 cpm. The “Incorporation of 14C-acetate: Cholesterol” value ([3]; 10 μM) was 25306 cpm, the “Incorporation of 14C-acetate: Esters of Cholesterol” value ([3]; 10 μM) was 1156 cpm and the “Incorporation of 14C-acetate: Fatty acids” value ([3]; 10 μM) was 376 cpm. For the same compound, the “Incorporation of 14C-acetate: Phospholipids” value ([3]; 10 μM) was 164252 cpm, the “Incorporation of 14C-acetate: Triglycerides” value ([3]; 10 μM) was 96533 cpm and the inhibition at 1 µM ([3]; 1 μM, read-out: Incorporation of 14C-acetate: Cholesterol, percent referred to physiological solution) was 34%. The inhibition at 1 µM ([3]; 1 μM, read-out: Incorporation of 14C-acetate: Esters of Cholesterol, percent referred to physiological solution) was 76%, the inhibition at 1 µM ([3]; 1 μM, read-out: Incorporation of 14C-acetate: Fatty acids, percent referred to physiological solution) was 55% and the inhibition at 1 µM ([3]; 1 μM, read-out: Incorporation of 14C-acetate: Phospholipids, percent referred to physiological solution) was 47%. The inhibition at 1 µM ([3]; 1 μM, read-out: Incorporation of 14C-acetate: Triglycerides, percent referred to physiological solution) was 22%, the inhibition at 10 µM ([3]; 10 μM, read-out: Incorporation of 14C-acetate: Cholesterol, percent referred to physiological solution) was 20% and the inhibition at 10 µM ([3]; 10 μM, read-out: Incorporation of 14C-acetate: Esters of Cholesterol, percent referred to physiological solution) was 71%. It also gave an inhibition at 10 µM ([3]; 10 μM, read-out: Incorporation of 14C-acetate: Fatty acids, percent referred to physiological solution) of 44%, an inhibition at 10 µM ([3]; 10 μM, read-out: Incorporation of 14C-acetate: Phospholipids, percent referred to physiological solution) of 34% and an inhibition at 10 µM ([3]; 10 μM, read-out: Incorporation of 14C-acetate: Triglycerides, percent referred to physiological solution) of 11%. The “activity as regards the synthesis of the esters of the cholesterol” value ([3]; summary of Table 4) was 70-75%.
